# Test results as given in ChEMBL document CHEMBL5154877, “Novel Sphingosine Kinase 1 Inhibitor Suppresses Growth of Solid Tumor and Inhibits the Lung Metastasis of Triple-Negative Breast Cancer” (J Med Chem, 2022).
# Active and inactive are the calls of the source. The calls are words filed in the database; no cut-off is given here.
# What was measured:
# [1] = Clearance in mouse at 2 mg/kg, iv; format: ADME, organism-based; details: in vivo
# MDA-MB-231 [2] = assay: Induction of apoptosis in human MDA-MB-231 cells assessed as necrotic cells at 10 uM incubated for 48 hrs by Annexin V-FITC/PI staining based flow cytometry (reference value: 1.42 %); format: functional
# MDA-MB-231 [3] = assay: Induction of apoptosis in human MDA-MB-231 cells assessed as late apoptotic cells at 10 uM incubated for 48 hrs by Annexin V-FITC/PI staining based flow cytometry (reference value: 1.96 %); format: functional
# MDA-MB-231 [4] = assay: Antimetastatic activity against human MDA-MB-231 cells […] assessed as inhibition of FSCN1 phosphorylation at 30 uM incubated for 2 to 12 hrs by western blot analysis; format: functional, cell-based; details: time 2-12 hrs
# HT-29 [5] = assay: Induction of cell cycle arrest at G0/G1 phase in human HT-29 cells assessed as reduction in CDK6 expression at 10 to 30 uM incubated for 24 hrs by Western blot analysis; format: functional, cell-based; details: dose 10-30 µM
# HT-29 [6] = assay: Induction of cell cycle arrest at G0/G1 phase in human HT-29 cells assessed as reduction in cyclinD1 expression at 10 to 30 uM incubated for 24 hrs by Western blot analysis; format: functional, cell-based; details: dose 10-30 µM
# MDA-MB-231 [7] = assay: Induction of apoptosis in human MDA-MB-231 cells assessed as viable cells at 30 uM incubated for 48 hrs by Annexin V-FITC/PI staining based flow cytometry (reference value: 94.3 %); format: functional; details: read-out: Activity
# HT-29 [8] = assay: Induction of cell cycle arrest at G1 phase in human HT-29 cells assessed as increase in P21 expression at 30 uM incubated for 24 hrs by Western blot analysis; format: functional, cell-based
# HT-29 [9] = assay: Induction of cell cycle arrest at G0/G1 phase in human HT-29 cells assessed as reduction in cyclinE1 expression at 10 to 30 uM incubated for 24 hrs by Western blot analysis; format: functional, cell-based; details: dose 10-30 µM
# [10] = AUClast in mouse at 2 mg/kg, iv; format: ADME, organism-based; parameters: time 0 - last, dose 2 mg/kg, route iv; details: in vivo
# [11] = Cmax in mouse at 20 mg/kg, po; format: ADME, organism-based; parameters: dose 20 mg/kg, route po; details: in vivo
# MDA-MB-231 [12] = assay: Antimetastatic activity against human MDA-MB-231 cells […] assessed as downregulation of MMP-9 at 30 uM incubated for 2 to 12 hrs by western blot analysis; format: functional, cell-based; details: time 2-12 hrs
# [13] = Toxicity in BALB/c mouse xenografted with human MDA-MB-231 cells assessed as body weight change at 100 mg/kg, ip administrated for 28 days; format: organism-based; details: in vivo, 672 h, time 28 day
# [14] = Oral bioavailability in mouse at 20 mg/kg; format: ADME, organism-based; details: in vivo
# MDA-MB-231 [15] = assay: Induction of apoptosis in human MDA-MB-231 cells assessed as viable cells at 10 uM incubated for 48 hrs by Annexin V-FITC/PI staining based flow cytometry (reference value: 94.3 %); format: functional; details: read-out: Activity
# MDA-MB-231 [16] = assay: Induction of apoptosis in human MDA-MB-231 cells assessed as necrotic cells at 30 uM incubated for 48 hrs by Annexin V-FITC/PI staining based flow cytometry (reference value: 1.42 %); format: functional
# [17] = Half life in mouse at 10 mg/kg, ip; format: ADME, organism-based; details: in vivo
# [18] = Half life in mouse at 2 mg/kg, iv; format: ADME, organism-based; details: in vivo
# [19] = Half life in mouse at 20 mg/kg, po; format: ADME, organism-based; details: in vivo
# [20] = AUClast in mouse at 20 mg/kg, po; format: ADME, organism-based; parameters: time 0 - last, dose 20 mg/kg, route po; details: in vivo
# MDA-MB-231 [21] = assay: Antimigratory activity against human MDA-MB-231 cells assessed as inhibition of cell migration in human MDA-MB-231 cells at 40 uM incubated for 15 hrs by wound healing assay; format: functional, cell-based
# MDA-MB-231 [22] = assay: Induction of apoptosis in human MDA-MB-231 cells assessed as early apoptotic cells at 10 uM incubated for 48 hrs by Annexin V-FITC/PI staining based flow cytometry (reference value: 2.35 %); format: functional
# [23] = Toxicity in BALB/c mouse xenografted with human MDA-MB-231 cells assessed as change in body weight at 50 mg/kg/day, ip for 3 weeks and measured every 3 days; format: organism-based; details: in vivo, 504 h
# HT-29 [24] = assay: Induction of cell cycle arrest at G0/G1 phase in human HT-29 cells assessed as reduction in cyclinA expression at 10 to 30 uM incubated for 24 hrs by Western blot analysis; format: functional, cell-based; details: dose 10-30 µM
# MDA-MB-231 [25] = assay: Induction of apoptosis in human MDA-MB-231 cells assessed as late apoptotic cells at 30 uM incubated for 48 hrs by Annexin V-FITC/PI staining based flow cytometry (reference value: 1.96 %); format: functional
# HT-29 [26] = assay: Induction of cell cycle arrest at G0/G1 phase in human HT-29 cells assessed as decrease in p-Rb expression at 10 to 30 uM incubated for 24 hrs by Western blot analysis; format: functional, cell-based; details: dose 10-30 µM
# MDA-MB-231 [27] = assay: Antimetastatic activity against human MDA-MB-231 cells xenografted in BALB/c mouse assessed as decrease in plasma S1P levels at 100 mg/kg, ip for 28 days; format: functional, organism-based; details: time 28.0 day
# HT-29 [28] = assay: Induction of cell cycle arrest in human HT-29 cells assessed as accumulation at G0/G1 phase at 10 uM incubated for 24 hrs by PI staining based flow cytometry; format: functional
# [29] = Toxicity in BALB/c mouse xenografted with human HT-29 cells assessed as change in body weight at 50 mg/kg/day, ip for 3 weeks and measured every 3 days; format: organism-based; details: in vivo, 504 h
# [30] = Tmax in mouse at 20 mg/kg, po; format: ADME, organism-based; details: in vivo
# HT-29 [31] = assay: Antitumor activity against human HT-29 cells xenografted in BALB/c mouse assessed as tumor growth inhibition at 50 mg/kg/day, ip for 3 weeks and measured every 3 days by caliper method; format: functional, organism-based
# MDA-MB-231 [32] = assay: Induction of apoptosis in human MDA-MB-231 cells assessed as early apoptotic cells at 30 uM incubated for 48 hrs by Annexin V-FITC/PI staining based flow cytometry (reference value: 2.35 %); format: functional
# MDA-MB-231 [33] = assay: Antimetastatic activity against human MDA-MB-231 cells […] assessed as inhibition of NF-kappaB p65 phosphorylation at 30 uM incubated for 2 to 12 hrs by Western blot analysis; format: functional, cell-based; details: time 2-12 hrs
# MDA-MB-231 [34] = assay: Antimigratory activity against human MDA-MB-231 cells assessed as reduction in cell migration at 40 uM incubated for 8 hrs by crystal violet staining microscopy based transwell migration assay; format: functional
# MDA-MB-231 [35] = assay: Antimetastatic activity against human MDA-MB-231 cells […] assessed as upregulation of phosphorylated beta-catenin at 30 uM incubated for 2 to 12 hrs by western blot analysis; format: functional, cell-based; details: time 2-12 hrs
smiles,measurement,setting,value
Cc1cc(CS(=O)(=O)c2ccccc2)cc(OCc2ccc(CN3CCC[C@@H]3CO)cc2)c1,clearance,[1],207 mL/min/kg
same,Activity,MDA-MB-231 [2],2.22%
same,Activity,MDA-MB-231 [3],7.11%
same,Activity,MDA-MB-231 [4],Active
same,Activity,HT-29 [5],Active
same,Activity,HT-29 [6],Active
same,viability at 30 µM,MDA-MB-231 [7],65.4%
same,Activity,HT-29 [8],Active
same,Activity,HT-29 [9],Active
same,AUC(0-t),[10],168 ng·h/mL
same,Cmax,[11],16.8 ng/mL
same,Activity,MDA-MB-231 [12],Active
same,Activity,[13],Non-Toxic
same,bioavailability,[14],1.92%
same,viability at 10 µM,MDA-MB-231 [15],85.8%
same,Activity,MDA-MB-231 [16],1.99%
same,half-life,[17],1.2 h
same,half-life,[18],1.01 h
same,half-life,[19],4.3 h
same,AUC(0-t),[20],32.3 ng·h/mL
same,Activity,MDA-MB-231 [21],Active
same,Activity,MDA-MB-231 [22],4.89%
same,Activity,[23],Non-Toxic
same,Activity,HT-29 [24],Active
same,Activity,MDA-MB-231 [25],7.47%
same,Activity,HT-29 [26],Active
same,Activity,MDA-MB-231 [27],Active
same,Activity,HT-29 [28],Active
same,Activity,[29],Non-Toxic
same,Tmax,[30],0.25 h
same,Activity,HT-29 [31],Active
same,Activity,MDA-MB-231 [32],25.2%
same,Activity,MDA-MB-231 [33],Active
same,Activity,MDA-MB-231 [34],Active
same,Activity,MDA-MB-231 [35],Active
